Results published in patent publication US20090281126A1, “Organic Compounds” (Novartis AG, priority 2006, published 2009).

Columns and labels:
[1] = target: T1, adenosine A3 receptors (Homo sapiens, UniProt P0DMS8); experiment: A3 [35S]-GTPGammaS binding functional assay (SPA, CHO membranes); assay type: biochemical; conditions: agonist stimulation of [35S]-GTPγS binding
T1 construct: expressed in transfected cells; membranes prepared in house
T1 sequence (P0DMS8 1-318): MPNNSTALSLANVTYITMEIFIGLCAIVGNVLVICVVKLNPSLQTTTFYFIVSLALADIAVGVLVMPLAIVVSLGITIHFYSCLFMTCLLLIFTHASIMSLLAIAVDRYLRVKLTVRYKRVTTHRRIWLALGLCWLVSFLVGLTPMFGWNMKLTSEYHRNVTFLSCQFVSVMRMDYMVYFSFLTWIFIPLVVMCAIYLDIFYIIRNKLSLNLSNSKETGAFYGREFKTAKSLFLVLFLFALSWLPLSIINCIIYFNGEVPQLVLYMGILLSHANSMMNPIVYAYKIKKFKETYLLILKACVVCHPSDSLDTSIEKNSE
Procedure: To establish the functional response to compounds of this invention an assay was carried out measuring A3 agonist stimulation of [^35S]-GTPγS binding in membranes prepared from CHO cells stably expressing adenosine A3 receptors. The agonist-induced stimulation of binding of [^35S]-GTPγS to activated G proteins has been used as a functional assay for a variety of receptors, including adenosine receptors. See Lorenzen et al., Mol Pharmacol, Vol. 49, pp. 915-926 (1996); and Jacobson et al., Drug Dev Res Vol. 37, p. 131 (1996).
The conventional GTPγS binding assay described by Lorenzen et al (1996), supra, is a filtration based method and thus requires a separation step; we have modified this method to run as a SPA format so that it can be used in a semi-automated and homogenous formal. In the SPA assay membranes are captured by wheatgerm agglutinin (WGA) SPA beads, through a specific interaction between WGA and carbohydrate residues of glycoproteins on the surfaces for the membranes. Upon receptor stimulation, [^35S]-GTPγS binds specifically to the alpha subunit of the G-protein thus bringing the [^35S]-GTPγS into close proximity with the SPA beads. Emitted β particles from the [^35S]-GTPγS excite the scintillant in the beads and produce light.
The assay was performed in a final volume of 250 μL/well in a white non-binding surface 96-well Optiplate. […]

[2] = target: T2, human A3 receptors (Homo sapiens, UniProt P0DMS8); experiment: A3 binding assay ([125I]-AB-MECA radioligand, CHO membranes); conditions: [125I]-AB-MECA 0.25 nM
T2 construct: expressed in transfected cells; membranes prepared in house
T2 sequence (P0DMS8 1-318): T1 sequence (P0DMS8 1-318)
Procedure: Compounds in the present invention were tested in an A3 binding assay using the iodinated ligand [^125I]-AB-MECA with membranes prepared from CHO cells stably expressing human A3 receptors.
Radioligand binding to the CHO A3 membranes was performed using radio-labelled agonist [^125I]-AB-MECA at a concentration range of 0.002-5 nM to obtain saturation binding. Binding experiments were performed in duplicate using 2.5 μg membrane in a total volume of 200 μL of assay buffer. The non-specific binding was determined in the presence of 10 μM of the agonist I-AB-MECA.
The assay was performed in a final volume of 200 μL/well, in a U-bottomed polypropylene 96-well plate. […] Total binding was determined using 50 μL vehicle. Non-specific binding was determined using 50 μL of 40 μM I-AB-MECA, to give a final assay concentration of 10 μM. • 50 μL [^125I]-AB-MECA at a concentration of 1 nM (4×), to give a final assay concentration of 0.25 nM. • 100 μL CHO A3 membranes at a concentration of 25 μg/mL in assay buffer containing 4 U/mL adenosine deamin ase (ADA) (final assay concentration of 2 U/mL), to give a final assay concentration of 2.5 μg/well.
Compound dilution were prepared on a Biomek 2000 to give a series of 10 concentrations from 40-0.002 μM (4×). […] Total binding was determined in the absence of I-AB-MECA and non specific binding in the presence of 10 μM I-AB-MECA. […]

[3] = as described in WO 95/02604, cited from earlier work

EC50 [1] | Ki [2] | Compound | increase in basal or systemic blood pressure ([3]; administration of IB-MECA) | basal or systemic blood pressure after administration ([3]; from about 70 mmHg)
11 nM | 0.91 nM | CC(=O)N[C@H]1C[C@@H](n2cnc3c(NCc4cccc(I)c4)nc(Cl)nc32)[C@H](O)[C@@H]1O [Example 1, N-{(1S,2R,3S,4R)-4-[2-Chloro-6-(3-iodobenzylamino)-purin-9-yl]-2,3-dihydroxycyclopentyl}-acetamide] |  | 
 |  | CNC(=O)[C@H]1O[C@@H](n2cnc3c(NCc4cccc(I)c4)ncnc32)[C@H](O)[C@@H]1O [IB-MECA] | 10 to 30% | about 90 mmHg
